Measured values reported in US20240336572A1, “SUBSTITUTED INDAZOLE PROPIONIC ACID DERIVATIVE COMPOUNDS AND USES THEREOF” (Pfizer Inc., priority 2023, published 2024).

How the values were obtained:
[1] = target: T1, AMPK 111 (Homo sapiens, UniProt Q13131+Q9Y478); assay: Biochemical profiling of AMPK activators by AMPK111 (HTRF/TR-FRET assay, SAMS peptide, PP2A dephosphorylation protection); details: for EC50: phosphorylated AMPK 111 (α1β1δ1 as printed), 11 point dilution, duplicate, 4-parameter fit; for Emax: phosphorylated AMPK 111, maximal activation
T1 construct: open reading frames encoding the full-length α1, β1 and δ1 subunits of human AMPK; made in house; host or cells: E. coli BL21-CodonPlus (DE3)-RIPL, pET-14b
T1 sequence (Q13131 whole entry): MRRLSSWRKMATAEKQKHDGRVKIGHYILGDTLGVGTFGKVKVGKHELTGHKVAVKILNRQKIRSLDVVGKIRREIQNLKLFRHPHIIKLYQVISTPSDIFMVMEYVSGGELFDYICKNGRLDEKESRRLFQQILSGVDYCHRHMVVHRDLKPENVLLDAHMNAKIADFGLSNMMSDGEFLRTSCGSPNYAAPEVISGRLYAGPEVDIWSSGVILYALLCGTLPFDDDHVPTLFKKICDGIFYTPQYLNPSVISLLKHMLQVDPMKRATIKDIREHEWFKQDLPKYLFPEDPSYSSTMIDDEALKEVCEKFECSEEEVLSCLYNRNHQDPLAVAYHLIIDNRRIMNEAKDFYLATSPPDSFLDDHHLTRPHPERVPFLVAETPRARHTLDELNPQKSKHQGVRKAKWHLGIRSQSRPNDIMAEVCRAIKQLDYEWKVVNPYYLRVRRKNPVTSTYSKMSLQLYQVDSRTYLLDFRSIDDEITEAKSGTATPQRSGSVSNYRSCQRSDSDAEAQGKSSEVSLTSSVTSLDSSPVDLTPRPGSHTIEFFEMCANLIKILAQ
T1 sequence (Q9Y478 whole entry): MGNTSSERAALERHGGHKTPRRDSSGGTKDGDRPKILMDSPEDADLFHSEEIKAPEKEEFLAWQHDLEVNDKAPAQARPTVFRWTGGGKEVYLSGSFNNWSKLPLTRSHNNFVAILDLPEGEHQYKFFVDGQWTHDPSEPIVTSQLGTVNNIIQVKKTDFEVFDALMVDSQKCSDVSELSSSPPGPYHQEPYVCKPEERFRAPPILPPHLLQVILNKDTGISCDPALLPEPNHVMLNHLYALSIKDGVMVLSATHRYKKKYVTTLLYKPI
T1 sequence (P54619 whole entry partner): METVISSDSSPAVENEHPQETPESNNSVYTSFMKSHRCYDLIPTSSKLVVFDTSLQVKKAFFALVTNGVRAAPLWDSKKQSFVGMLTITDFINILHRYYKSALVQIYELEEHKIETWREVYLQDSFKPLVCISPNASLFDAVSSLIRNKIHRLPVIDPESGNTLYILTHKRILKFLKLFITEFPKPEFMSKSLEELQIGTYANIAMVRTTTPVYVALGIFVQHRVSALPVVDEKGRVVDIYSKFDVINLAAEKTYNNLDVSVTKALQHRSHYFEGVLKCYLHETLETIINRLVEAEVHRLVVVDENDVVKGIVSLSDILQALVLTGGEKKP
Description: (§1) The biochemical EC50 (half-maximal concentration required for full activation) of compounds for the activation of AMPK was evaluated by HTRF assay using LANCE Ultra ULight-Acetyl-CoA Carboxylase (SAMS) peptide (commercially available, Perkin Elmer catalog TRF0133-M).
Following a fifteen-minute room temperature incubation, 5 μL of 30 nM protein phosphatase PP2A (isolation detailed above) diluted in the assay buffer was added to the plate, to dephosphorylate pThr172 of AMPK. […] The reaction was terminated after 60 minutes incubation at room temperature, by the addition of 5 μL of stop and detection cocktail, which consisted of 1× Perkin Elmer Lance buffer (Perkin Elmer catalog number CR97-100), 40 mM EDTA (Thermo Fisher catalog number BP2482-100), and 2 nM Eu-anti-Acetyl CoA Carboxylase [pSer70] antibody (Perkin Elmer, TRF0208-M).

[2] = target: T2, AMPK 221 (Homo sapiens, UniProt O43741+P54646); assay: Biochemical profiling of AMPK activators by AMPK221 (HTRF/TR-FRET assay, SAMS peptide, PP2A dephosphorylation protection); details: for EC50: phosphorylated AMPK 221 (α2β2δ1), 11 point dilution, duplicate, 4-parameter fit; for Emax: phosphorylated AMPK 221, maximal activation
T2 construct: open reading frames encoding the full-length α2, β2 and δ1 subunits of human AMPK; made in house; host or cells: E. coli BL21-CodonPlus (DE3)-RIPL, pET-14b
T2 sequence (P54646 whole entry): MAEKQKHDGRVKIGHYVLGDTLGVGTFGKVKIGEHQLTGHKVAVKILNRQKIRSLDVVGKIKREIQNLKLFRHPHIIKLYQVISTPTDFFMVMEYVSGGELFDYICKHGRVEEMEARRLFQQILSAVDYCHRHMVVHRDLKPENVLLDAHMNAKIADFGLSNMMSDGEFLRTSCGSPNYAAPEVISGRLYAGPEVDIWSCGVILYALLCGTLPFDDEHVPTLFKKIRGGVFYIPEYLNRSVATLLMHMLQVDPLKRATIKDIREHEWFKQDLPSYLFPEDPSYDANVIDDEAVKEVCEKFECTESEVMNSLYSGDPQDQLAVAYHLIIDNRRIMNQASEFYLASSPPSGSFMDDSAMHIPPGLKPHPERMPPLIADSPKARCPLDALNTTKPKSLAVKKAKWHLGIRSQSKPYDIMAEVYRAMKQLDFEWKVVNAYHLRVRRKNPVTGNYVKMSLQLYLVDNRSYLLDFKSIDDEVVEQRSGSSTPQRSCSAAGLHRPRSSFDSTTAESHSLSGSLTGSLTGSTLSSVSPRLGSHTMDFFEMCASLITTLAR
T2 sequence (O43741 whole entry): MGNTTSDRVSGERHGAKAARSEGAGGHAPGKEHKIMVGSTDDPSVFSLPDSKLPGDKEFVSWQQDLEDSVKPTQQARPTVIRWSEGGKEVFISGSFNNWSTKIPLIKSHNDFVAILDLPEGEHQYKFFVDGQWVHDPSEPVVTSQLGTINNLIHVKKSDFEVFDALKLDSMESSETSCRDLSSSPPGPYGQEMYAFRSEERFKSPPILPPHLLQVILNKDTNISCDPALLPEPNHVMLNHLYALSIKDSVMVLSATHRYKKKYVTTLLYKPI
T2 sequence (P54619 whole entry partner): as the sequence (P54619 whole entry partner) above
Description: as §1
The reaction was terminated after 60 minutes incubation at room temperature by the addition of 5 μL of stop and detection cocktail, which consisted of 1× Perkin Elmer Lance buffer (Perkin Elmer catalog number CR97-100), 40 mM EDTA (Thermo Fisher catalog number BP2482-100), and 2 nM Eu-anti-Acetyl CoA Carboxylase [pSer70] antibody (Perkin Elmer, TRF0208-M). Plates were spun at 1000 RPM, 10 seconds.

Compound: O=C(O)CCc1n[nH]c2cc(Cl)c(-c3ccc(-c4c(Cl)ccc(F)c4O)cc3)cc12 [Example 67, 3-(6-chloro-5-(6′-chloro-3′-fluoro-2′-hydroxy-[1,1′-biphenyl]-4-yl)-1H-indazol-3-yl)propanoic acid]
- EC50 [1]: 69 nM
- Emax [1]: 85%
- EC50 [2]: 953 nM
- Emax [2]: 63%

Compound: O=C(O)CCc1n[nH]c2cc(Cl)c(-c3ccc(-c4cccc(CO)c4)cc3)cc12 [Example 61, 3-(6-chloro-5-(3′-(hydroxymethyl)-[1,1′-biphenyl]-4-yl)-1H-indazol-3-yl)propanoic acid]
- EC50 [1]: 692 nM
- Emax [1]: 55%
- EC50 [2]: 645 nM
- Emax [2]: 34%

Compound: O=C(O)CCc1n[nH]c2cc(Cl)c(-c3ccc(-c4ccccc4O)cc3F)cc12 [Example 3, 3-(6-Chloro-5-(3-fluoro-2′-hydroxy-[1,1′-biphenyl]-4-yl)-1H-indazol-3-yl)propanoic acid]
- EC50 [1]: 189 nM
- Emax [1]: 83%
- EC50 [2]: 528 nM
- Emax [2]: 61%

Compound: O=C(O)CCc1n[nH]c2cc(Cl)c(-c3ccc(-c4ccccc4O)cc3)nc12 [Example 73, 3-(6-chloro-5-(2′-hydroxy-[1,1′-biphenyl]-4-yl)-1H-pyrazolo[4,3-b]pyridin-3-yl)propanoic acid]
- EC50 [1]: 26 nM
- Emax [1]: 86%
- EC50 [2]: 2110 nM
- Emax [2]: 30%

Compound: NCc1ccc(-c2ccc(-c3cc4c(CCC(=O)O)n[nH]c4cc3Cl)cc2)c(O)c1 [Example 8, 3-(5-(4′-(Aminomethyl)-2′-hydroxy-[1,1′-biphenyl]-4-yl)-6-chloro-1H-indazol-3-yl)propanoic acid]
- EC50 [1]: 26 nM
- Emax [1]: 75%
- EC50 [2]: 38 nM
- Emax [2]: 56%

Compound: O=C(O)CSc1n[nH]c2cc(Cl)c(-c3ccc(-c4ccccc4O)cc3)cc12 [Example 11, 2-((6-chloro-5-(2′-hydroxy-[1,1′-biphenyl]-4-yl)-1H-indazol-3-yl)thio)acetic acid]
- EC50 [1]: 53 nM
- Emax [1]: 62%
- EC50 [2]: 60 nM
- Emax [2]: 44%

Compound: O=C(O)CNc1n[nH]c2cc(Cl)c(-c3ccc(-c4ccccc4O)cc3)cc12 [Example 19, (6-Chloro-5-(2′-hydroxy-[1,1′-biphenyl]-4-yl)-1H-indazol-3-yl)glycine]
- EC50 [1]: 54 nM
- Emax [1]: 79%
- EC50 [2]: 144 nM
- Emax [2]: 34%

Compound: CC(=O)N(C)c1ccc(-c2ccc(-c3cc4c(CCC(=O)O)n[nH]c4cc3Cl)cc2)cc1 [Example 39, 3-(6-chloro-5-(4′-(N-methylacetamido)-[1,1′-biphenyl]-4-yl)-1H-indazol-3-yl)propanoic acid]
- EC50 [1]: 109 nM
- Emax [1]: 69%
- EC50 [2]: 218 nM
- Emax [2]: 59%

Compound: CNC(=O)c1ccc(-c2ccc(-c3cc4c(CCC(=O)O)n[nH]c4cc3Cl)cc2)cc1 [Example 76, 3-(6-chloro-5-(4′-(methylcarbamoyl)-[1,1′-biphenyl]-4-yl)-1H-indazol-3-yl)propanoic acid]
- EC50 [1]: 6 nM
- Emax [1]: 67%
- EC50 [2]: 13 nM
- Emax [2]: 53%

Compound: Cc1ccc(-c2ccc(-c3cc4c(CCC(=O)O)n[nH]c4cc3Cl)cc2)c(O)c1 [Example 34, 3-(6-chloro-5-(2′-hydroxy-4′-methyl-[1,1′-biphenyl]-4-yl)-1H-indazol-3-yl)propanoic acid]
- EC50 [1]: 228 nM
- Emax [1]: 68%
- EC50 [2]: 197 nM
- Emax [2]: 50%

Compound: COc1ccc(Cl)c(-c2ccc(-c3cc4c(CCC(=O)O)n[nH]c4cc3Cl)cc2)c1O [Example 14, 3-(6-chloro-5-(6′-chloro-2′-hydroxy-3′-methoxy-[1,1′-biphenyl]-4-yl)-1H-indazol-3-yl)propanoic acid]
- EC50 [1]: 45 nM
- Emax [1]: 74%
- EC50 [2]: 72 nM
- Emax [2]: 65%

Compound: O=C(O)CCc1n[nH]c2cc(Cl)c(-c3ccc(-c4cc(F)ccc4O)cc3)cc12 [Example 70, 3-(6-chloro-5-(5′-fluoro-2′-hydroxy-[1,1′-biphenyl]-4-yl)-1H-indazol-3-yl)propanoic acid]
- EC50 [1]: 285 nM
- Emax [1]: 74%
- EC50 [2]: 1090 nM
- Emax [2]: 49%
